From patent US20170100345A1, “WOUND HEALING USING BRAF INHIBITORS” (THE REGENTS OF THE UNIVERSITY OF CALIFORNIA, priority 2014, published 2017)
Several values for one entry are separate records, joined by “and”; a condition that tells them apart may be missing. Identical values can stand only once. Entries after “also recorded” stand apart in the source; their conditions may differ.

How the values were obtained:
[1] = test system: MAPK and wound healing pathway output; experiment: RNASeq gene expression profiling of healing cutaneous wounds; assay type: in vivo, mice
Method: The skin samples obtained from mice treated either with vemurafenib or vehicle were analyzed for changes in MAPK and wound healing pathway output by RNASeq. The gene output of MAPK was compared to published data on the transcripts that were differentially modulated by blocking oncogenic MAPK signaling downstream of mutated BRAF^V600E using BRAF inhibitors, or to a published cutaneous wound healing gene signature.

2.5 cm dorsal skin wound = experiment: wound-healing assay in C3H mice, wound tensile strength by tensiometer; assay type: in vivo
Method: FIG. 5A is a schematic representation of the wound-healing assay performed in […] mice according to some embodiments.
In a controlled wound-healing assay in C3H mice, a 2.5 cm dorsal skin wound was induced and was filled with either vehicle control (DMSO/saline) or a suspension of 2 mM of vemurafenib (obtained by crushing clinical grade pills of this agent) in vehicle. The skin wounds were surgically clipped on day 0 and mice were followed until day 14 (FIGS. 5A-5B). Over this time, the vemurafenib suspension or vehicle control was applied topically every other day to 24 mice in the test group or to 24 mice in the control group, respectively, for a total of seven doses per mouse. On day 14, the mice were euthanized and the skin containing the wound was removed and mounted in 20 mm strips with a horizontal wound sample in each strip. The wound tensile strength (WTS) was analyzed using a tensiometer that stretched the strips and recorded the WTS in gram force (gf).

HEKa = experiment: three-dimensional soft agar colony assay, HEKa; assay type: cell-based, human
Description: (§1) FIG. 2 illustrates that BRAF inhibition induces paradoxical MAPK activation in human keratinocytes leading to increased proliferation. FIG. 2A is a quantitative analysis of proliferation and scratch healing as the percentage relative wound density of cells at different time points in replicate cultures of HEKa in the presence or absence of vemurafenib by automated microscope analyzer. P value <0.0044 by t-test. […] FIG. 2C illustrates fold-change representation of colony quantification of HEKa and M249 cells grown in soft-agar with or without exposure to vemurafenib. […] The co-expression levels of pERK and Ki67 are shown in the middle of the panel, and quantified and represented a fold change on the left.
(§2) Quantitative analysis of proliferation is represented in FIG. 2A.
(§3) Human epithelial adult keratinocytes (HEKa) cultured in 96-well plates were subject to a scratch assay, where proliferating keratinocytes should regrow and cover the scratch. Replicate cultures with or without the BRAF inhibitor vemurafenib were placed in an incubator with an automated microscope analyzer and the number of nucleated cells in the original scratch was recorded over time. […] Using these cultures, paradoxical MAPK activation and cell proliferation were analyzed by western blot (FIGS. 2F-2G) and quantitative phosphoflow cytometry (FIG. 2H and FIGS. 4A-4B).

[2] = test system: Human epithelial adult keratinocytes (HEKa); experiment: scratch assay of HEKa, automated microscope analyzer; assay type: cell-based; conditions: HEKa with vs without vemurafenib; evident at 6, 8 and 12 hours
Description: as §1, §2, §3

[3] = test system: skin wounds and their surroundings; experiment: histological analysis (H&E) of healing wounds in mice; assay type: in vivo
Description: FIG. 6 is a schematic representation of the pathological analysis of wound healing on days 1 (D1), 2 (D2) and 6 (D6) post-treatment. […] Wound-adjacent epidermis undergoes hyperplasia and proliferation and epidermal cells from this process migrate centrally to seal the incised epidermal deficiency. The space of the incision fills initially with fibrin, which is then colonized by fibroblasts, macrophages, polymorphonuclear cells and new capillaries. […] Each bar includes data from 4 samples.
The area of the wounds and their surroundings were analyzed histologically by H&E staining by two pathologists and the extent of epidermal hyperplasia on both sides of the healing wounds was measured on days 1, 2 and 6 post-treatment (FIGS. 6A and 6B).

[4] = test system: Human epithelial adult keratinocytes (HEKa); experiment: cell proliferation wound-healing assay, 96 well plates with seeder stoppers; assay type: cell-based; conditions: 24 hours, vs control treated wells
Description: as §1, §3

[5] = test system: pERK and Ki67 in BRAF^V600E mutant human melanoma cell line M249; experiment: MAPK signaling and cell proliferation by western blot and phosphoflow cytometry, M249; assay type: cell-based; conditions: western blot and phosphoflow (VEM 2 μM)
Description: as §1, §3

[6] = test system: pERK and Ki67 in HEKa cells; experiment: paradoxical MAPK activation and cell proliferation by western blot and phosphoflow cytometry, HEKa; assay type: cell-based, human; conditions: western blot and phosphoflow (VEM 2 μM)
Description: as §1, §3

[7] = test system: BRAF^V600E mutant melanoma line M249; experiment: three-dimensional soft agar colony assay, M249; assay type: cell-based, human; conditions: M249, with vs without exposure
Description: as §1, §2, §3

Q: Which results are given for `CCCS(=O)(=O)Nc1ccc(F)c(C(=O)c2c[nH]c3ncc(-c4ccc(Cl)cc4)cc23)c1F` [vemurafenib]?
A: BRAF and wound-healing signatures, later course ([1]; after day 6, time point not given): more pronounced decrease; BRAF signature genes ([1]; day 2, vs control): slight increase; wound-healing signature genes ([1]; day 2, vs control): almost no change; BRAF signature genes ([1]; day 6, vs control): enriched significantly; wound-healing signature genes ([1]; day 6, vs control): enriched significantly; improvement in wound tensile strength (WTS) compared to saline control (2.5 cm dorsal skin wound; C3H mice, 2 mM suspension topically every other day, day 14, three independent replicate experiments (#1-3)): 52.6% and 32.9% and 42.8%; improvement in WTS vs. vehicle control (2.5 cm dorsal skin wound; separate cutaneous wound-healing assay (Experiment #4), trametinib 1 mg/kg where added): 37%; tensile strength of healing wounds (in words) (2.5 cm dorsal skin wound; wound-healing mouse model, topically applied): improved the tensile strength of healing wounds; mean spot size of HEKa colonies (HEKa; soft agar): increased significantly; number of HEKa colonies in soft agar (HEKa; with vs without exposure): increased in number; covering of the original scratch (proliferation and scratch healing, relative wound density) [2]: accelerated the proliferation and migration of human keratinocytes; also recorded: statistically significant improvement in the covering of the original scratch; wounds re-epithelialized ([3]; by day 6): 100%; extent (length) of epidermal hyperplasia vs other treated groups ([3]; day 1 and 2): epidermal hyperplasia over a greater distance than the other treated groups; wound-adjacent epidermal inflammation ([3]; day 1 post-incision): more extensive; wound-adjacent (peri-lesional) epidermal hyperplasia, photomicrographs ([3]; day 2 post-incision): more extensive; dermal reparative / sub-epidermal fibrosis ([3]; day 6): beginning of sub-epidermal fibrosis; extent (length) of epidermal hyperplasia vs other treated groups ([3]; day 6): less epidermal hyperplasia; skin surface integrity ([3]; day 6): surface integrity was re-established; also recorded: Skin surface integrity re-established in 6 days; healing process / signs of healing or repair (pathologists' assessment) ([3]; days 1 to 6): the healing process is accelerated; onset of re-epithelialization ([3]; from day 2): strong and rapid re-epithelialization starting at day 2; covering of the center of the wells by proliferating/migrating keratinocytes [4]: covered the center of the wells after 24 hours; cell cycle (Ki67) [5]: cell cycle arrest; pERK [5]: decreased pERK; cell cycle (Ki67) [6]: cell cycle progression; pERK [6]: paradoxical increase in pERK; number of M249 colonies in soft agar [7]: decrease in colonies
